Patent EP0721336B1, “BENZAZOLE COMPOUNDS FOR USE IN THERAPY” (CANCER RESEARCH CAMPAIGN TECHNOLOGY LIMITED, priority 1993, dated 1995)
Where two headings read alike, the source gives them in different places. Marks after values point to notes of the source that are not given here.

Key:
[1] = system: MCF-7 mammary carcinoma cells; assay: In vitro cytotoxicity assay (cell growth, propidium iodide fluorescence); format: cell-based, human; details: for IC50: Homo sapiens; for effect on cell growth: later series of experiments
Excerpt: (§1) This is illustrated in Tables 1 and 2 at the end of the present description which show in vitro test results obtained in various sets of experiments for the cytotoxic activity of this compound CJM 126 against a range of human tumour cell lines, expressed in terms of IC50 values (concentration or dosage required to reduce cell growth or proliferation by 50%) calculated from dose-effect curves plotted for cultures of the cells in question.
(§2) In carrying out the above in vitro studies, the method used for conducting the cytotoxicity assays was generally substantially as follows: • Cells were maintained in a continuous logarithmic culture in Dulbecco's medium supplemented with 10% fetal calf serum and penicillin (100 IU/ml) and streptomycin (100 µg/ml). The cells were mildly trypsinized for passage and for use in assays. On day zero, 100µl of trypsinized tumour cells (1 x 10^4/ml) were plated in the wells of 96-well flat-bottom microtiter plates. […] On day two 50µl of the highest drug concentration was added to the wells of column 12 and from there serially diluted 3-fold to column 1 by serial transfer of 50µl using an 8-channel micropipette. The final volume of column 1 was adjusted to 100µl. No additions were made to the wells of rows A and B, which served as controls. The plates were further incubated for 5 days at 37°C and 5% CO2 in air. Each compound was tested in duplicate. • On day 7 the test was terminated by the addition of 100µl saline containing 0.002% w/v propidium iodide (Sigma), 0.3% drawing ink (Staedtler "Marsmatic 745" - Trade Mark) and 0.5% Triton X-100. The plates were kept at 4°C overnight before reading on an inverted microscope equipped with an automated scanning stage. Fluorescence intensity was measured in arbitrary units by a photomultiplier. An HP-87 computer controlled the movement of the stage and also collected and processed the data from the multiplier. • For each compound tested a dose-response curve was obtained and the IC50 value (the drug concentration at 50% inhibition of cell growth) was calculated.

41M/CisP = assay: In vitro cytotoxicity assay; format: cell-based; details: Homo sapiens; 2nd series of experiments
Excerpt: as §1, §2

A204 rhabdomyosarcoma = assay: In vitro cytotoxicity assay; format: cell-based; details: Homo sapiens
Excerpt: as §1, §2

A2780/CisR = assay: In vitro cytotoxicity assay; format: cell-based; details: Homo sapiens, A2780cisR; 2nd series of experiments
Excerpt: as §1, §2

CH 1/CisR = assay: In vitro cytotoxicity assay; format: cell-based; details: Homo sapiens, CH1cisR; 2nd series of experiments
Excerpt: as §1, §2

HT29 colon carcinoma = assay: In vitro cytotoxicity assay; format: cell-based; details: Homo sapiens, HT-29
Excerpt: as §1, §2

HX/62 ovarian carcinoma = assay: In vitro cytotoxicity assay; format: cell-based; details: Homo sapiens, HX62; 2nd series of experiments
Excerpt: as §1, §2

IGR37 melanoma = assay: In vitro cytotoxicity assay; format: cell-based; details: Homo sapiens, IGR-37
Excerpt: as §1, §2

MCF 7-T (ER-) = assay: In vitro cytotoxicity assay; format: cell-based; details: Homo sapiens; 2nd series of experiments
Excerpt: as §1, §2

SKBR3 mammary (ER-) = assay: In vitro cytotoxicity assay; format: cell-based; details: Homo sapiens, SK-BR-3
Excerpt: as §1, §2

WiDr colon carcinoma = assay: In vitro cytotoxicity assay; format: cell-based; details: Homo sapiens
Excerpt: as §1, §2

ZR 75 mammary (ER+) = assay: In vitro cytotoxicity assay; format: cell-based; details: Homo sapiens, ZR75
Excerpt: as §1, §2

A431 cells = assay: In vitro growth assay; format: cell-based; details: range of concentrations 0.1nM-10µM
Experimental: No effect was observed, for example, on the growth of A431 cells as a result of exposure to CJM 126 over a range of concentrations (0.1nM-10µM).
as §2, with “Each compound was tested in duplicate. • On day 7 the test was terminated by the addition of 100µl saline containing 0.002% w/v propidium iodide (Sigma), 0.3% drawing ink (Staedtler "Marsmatic 745" - Trade Mark) and 0.5% Triton X-100.” left out, “An HP-87 computer controlled the movement of the stage and also collected and processed the data from the multiplier. • For each compound tested a dose-response curve was obtained and the IC50 value (the drug concentration at 50% inhibition of cell growth) was calculated.” left out

P388 cells = assay: In vitro cytotoxicity assay; format: cell-based; details: Mus musculus
Experimental: as §2, with “An HP-87 computer controlled the movement of the stage and also collected and processed the data from the multiplier. • For each compound tested a dose-response curve was obtained and the IC50 value (the drug concentration at 50% inhibition of cell growth) was calculated.” left out

[2] = system: P388R8/22 (multidrug resistant) cells; assay: In vitro cytotoxicity assay; format: cell-based
Experimental: as §2, with “An HP-87 computer controlled the movement of the stage and also collected and processed the data from the multiplier. • For each compound tested a dose-response curve was obtained and the IC50 value (the drug concentration at 50% inhibition of cell growth) was calculated.” left out

EGFR = EGFR (Homo sapiens, UniProt P00533); assay: Displacement of iodinated EGF from EGFR; format: binding; details: 1µM, 10µM and 100µM
EGFR tyrosine kinase = EGFR tyrosine kinase (Homo sapiens, UniProt P00533); assay: Western blot analyses with anti-phosphotyrosine primary antibody; format: cell-based; details: unstimulated or EGF stimulated
[3] = Lethal dose (LD50) determination; format: in vivo
[4] = system: BO (T61) human mammary carcinomas; assay: In vivo activity against implanted BO tumour; set-up: species or system NMRI-nu/nu female mice; details: i.p., qd 27,34,41
MCF-7 mammary carcinoma [5] = details: mouse, in vivo, ip, 120 mg/kg
MCF-7 mammary carcinoma [6] = assay: In vivo activity against MCF-7 tumour implanted s.c.; details: i.p., 120 mg/kg/day, qd 6, 13, 20
[7] = 2nd series of experiments, read-out: IC50

Chain of EGFR (P00533 25-1210): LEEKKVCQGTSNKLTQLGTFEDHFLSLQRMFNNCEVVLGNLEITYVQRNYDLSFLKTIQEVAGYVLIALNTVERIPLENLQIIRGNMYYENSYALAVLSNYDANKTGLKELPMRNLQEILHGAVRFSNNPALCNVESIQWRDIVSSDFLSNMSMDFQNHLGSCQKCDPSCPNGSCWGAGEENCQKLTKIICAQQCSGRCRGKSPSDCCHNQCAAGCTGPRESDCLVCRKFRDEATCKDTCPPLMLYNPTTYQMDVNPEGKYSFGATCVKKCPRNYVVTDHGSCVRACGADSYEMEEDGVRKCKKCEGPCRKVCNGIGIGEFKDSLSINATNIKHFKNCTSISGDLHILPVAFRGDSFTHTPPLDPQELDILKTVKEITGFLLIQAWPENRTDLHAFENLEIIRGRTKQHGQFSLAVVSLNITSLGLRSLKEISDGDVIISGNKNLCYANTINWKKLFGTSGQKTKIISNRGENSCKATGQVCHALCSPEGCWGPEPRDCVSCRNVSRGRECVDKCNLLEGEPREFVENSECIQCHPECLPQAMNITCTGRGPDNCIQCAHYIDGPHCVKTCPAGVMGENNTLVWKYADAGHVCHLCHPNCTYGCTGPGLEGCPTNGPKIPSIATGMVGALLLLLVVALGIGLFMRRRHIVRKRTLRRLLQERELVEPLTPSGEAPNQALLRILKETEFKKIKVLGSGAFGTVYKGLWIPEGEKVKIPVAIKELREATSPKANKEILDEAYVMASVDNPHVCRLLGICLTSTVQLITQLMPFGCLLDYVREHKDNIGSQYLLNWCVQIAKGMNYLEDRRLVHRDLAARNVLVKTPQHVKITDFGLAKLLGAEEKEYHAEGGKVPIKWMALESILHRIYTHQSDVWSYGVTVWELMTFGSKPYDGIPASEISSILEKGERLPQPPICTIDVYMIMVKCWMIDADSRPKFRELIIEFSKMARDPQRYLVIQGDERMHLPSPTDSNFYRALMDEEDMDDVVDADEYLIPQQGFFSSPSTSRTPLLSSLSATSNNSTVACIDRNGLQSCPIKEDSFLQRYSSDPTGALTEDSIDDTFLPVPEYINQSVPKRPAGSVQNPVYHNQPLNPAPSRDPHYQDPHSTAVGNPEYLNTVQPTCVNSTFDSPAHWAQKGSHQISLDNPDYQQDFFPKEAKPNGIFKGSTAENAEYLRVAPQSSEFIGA
Chain of EGFR tyrosine kinase (P00533 25-1210): as above

SMILES: Nc1ccc(-c2nc3ccccc3s2)cc1 [CJM 126, 2-(4-aminophenyl)benzothiazole]
- IC50 ([1]; MCF7, 1st series of experiments, initial decrease in cell growth, read-out: IC50): ~0.002 µg/mL
- IC50 ([1]; MCF7, MCF 7-wt, phase 1, after drug removal, read-out: observed IC50 after drug removal): 0.00218 µM
- IC50 ([1]; MCF7, MCF 7-wt, read-out: estimated IC50): ~0.0029 µM
- IC50 ([1]; MCF7, first series of experiments, second decrease at even greater doses, read-out: IC50 of second decrease (biphasic dose response)): ~2 µg/mL
- IC50 ([1]; MCF-wt, column A, read-out: MCF-wt A IC50 at sub-micromolar concentrations): 0.003 µM
- inhibition of growth ([1]; MCF 7-wt, 1% FCS, presence of EGF, all concentrations 1nM-10µM): greater than 85%
- times more sensitive than other human cell lines tested ([1]; first series of experiments, Table 1): about 3000 times
- estimated IC50 ([1]; in the presence of 1% FCS): picomolar range
- proliferation of colonies (2nd phase) ([1]; in the presence of 1% FCS, 3, 10, 30µM): no proliferation of colonies
- effect on cell growth ([1]; 30nM and 100nM): maximum growth inhibition
- effect on cell growth ([1]; exposure to 1µM, 3µM and 10µM): loss of growth arrest
- IC50 (41M/CisP): 40 µM
- IC50 (A204 rhabdomyosarcoma; 1st series of experiments): 5.94 µg/mL
- IC50 (A204 rhabdomyosarcoma; 2nd series of experiments): 26 µM
- IC50 (A2780/CisR): 37 µM
- IC50 (CH 1/CisR): 33 µM
- IC50 (HT29 colon carcinoma; 1st series of experiments): 7.57 µg/mL
- IC50 (HT29 colon carcinoma; 2nd series of experiments): 33 µM
- IC50 (HX/62 ovarian carcinoma): 120 µM
- IC50 (IGR37 melanoma; 1st series of experiments): 24 µg/mL
- IC50 (IGR37 melanoma; 2nd series of experiments): 106 µM
- IC50 (MCF 7-T (ER-)): 12.9 µM
- IC50 (SKBR3 mammary (ER-); [7]): 0.026 µM
- IC50 (SKBR3 mammary (ER-); SKBR3, read-out: estimated IC50): ~0.0259 µM
- IC50 (WiDr colon carcinoma; 1st series of experiments): 6.01 µg/mL
- IC50 (WiDr colon carcinoma; 2nd series of experiments): 26 µM
- IC50 (ZR 75 mammary (ER+); [7]): 0.028 µM
- IC50 (ZR 75 mammary (ER+); ZR 75, read-out: estimated IC50): ~0.0247 µM
- effect on growth (A431 cells): No effect
- IC50 (P388 cells): 27 µM
- IC50 [2]: 52 µM
- displacement of iodinated EGF from EGFR (EGFR): no ability to displace
- inhibition of EGFR tyrosine kinase activity (EGFR tyrosine kinase): no apparent inhibition
- LD50 ([3]; daily administration over 3 consecutive days): > 31 mg/kg/day
- LD50 ([3]; male, DBA/2, mouse, in vivo, ip, single i.p. dose, read-out: LD50): ~125 mg/kg
- BWC ([4]; 1 mg/kg/day): -5
- Relative tumour volume (T/C%) ([4]; 1 mg/kg/day, d33): 173%
- Relative tumour volume (T/C%) ([4]; 1 mg/kg/day, d41): 72%
- Relative tumour volume (T/C%) ([4]; 1 mg/kg/day, d47): 25* %
- Relative tumour volume (T/C%) ([4]; 1 mg/kg/day, d55): 67%
- Relative tumour volume (T/C%) ([4]; 1 mg/kg/day, d61): 41* %
- BWC ([4]; 10 mg/kg/day): -4
- Relative tumour volume (T/C%) ([4]; 10 mg/kg/day, d33): 107%
- Relative tumour volume (T/C%) ([4]; 10 mg/kg/day, d41): 74%
- Relative tumour volume (T/C%) ([4]; 10 mg/kg/day, d47): 55%
- Relative tumour volume (T/C%) ([4]; 10 mg/kg/day, d55): 70%
- Relative tumour volume (T/C%) ([4]; 10 mg/kg/day, d61): 52%
- BWC ([4]; 100 mg/kg/day): -7
- Relative tumour volume (T/C%) ([4]; 100 mg/kg/day, d33): 137%
- Relative tumour volume (T/C%) ([4]; 100 mg/kg/day, d41): 77%
- Relative tumour volume (T/C%) ([4]; 100 mg/kg/day, d47): 87%
- Relative tumour volume (T/C%) ([4]; 100 mg/kg/day, d55): 68%
- Relative tumour volume (T/C%) ([4]; 100 mg/kg/day, d61): 52%
- signs of toxicity (MCF-7 mammary carcinoma [5]): no signs of severe toxicity
- Relative tumour volume (T/C%) (MCF-7 mammary carcinoma [6]; d9): 84%
- Relative tumour volume (T/C%) (MCF-7 mammary carcinoma [6]; d13): 47* %
- Relative tumour volume (T/C%) (MCF-7 mammary carcinoma [6]; d20): 38* %
- Relative tumour volume (T/C%) (MCF-7 mammary carcinoma [6]; d27): 27* %
- Relative tumour volume (T/C%) (MCF-7 mammary carcinoma [6]; d35): 27* %
- Relative tumour volume (T/C%) (MCF-7 mammary carcinoma [6]; d43): 43* %
- BWC (%) (MCF-7 mammary carcinoma [6]; relative to saline treated animals): -13%
